# From patent publication US20240174622A1, “COMPOUND AND RADIOACTIVE LABELING COMPOUND” (NIHON MEDI-PHYSICS CO., LTD., priority 2021, published 2024)
# Values joined by “and” are separate entries in the source; they are usually repeats but may differ in a detail not shown here. Identical values can stand only once.
# Assays:
# [1] = test system: LNCaP tumor-transplanted mouse; assay: Internal radioactivity distribution using LNCaP tumor-transplanted mouse; format: in vivo
# How it was run: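 Male SCID mice bearing subcutaneous LNCaP or PC-3 xenografts (40–60 days) received the 111In-labelled compound i.v. via tail vein (185–259 kBq in saline; n=2–3). Blood and organs collected at 1 to 192 hours post-dose, weighed and counted. Uptake expressed as %ID/g.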
# LNCaP tumor = assay: SPECT/CT using LNCaP tumor-transplanted mouse; format: in vivo
# Method: (§1) LNCaP tumor-implanted mice prepared by the method described above were administered saline solutions (1.9 to 3.0 MBq, 150 μL) of [^111In]In-PSMA-DA1 or [^111In]In-PSMA-DB from the tail vein. SPECT/CT was performed 24 and 48 hours after administration with FX3300 pre-clinical imaging system, which is manufactured by Gamma Medica-Ideas. Imaging was performed using a pinhole collimator with a diameter of 1.0 mm at a rotation radius of 35 mm, a projection time of 70 seconds, and the number of projections of 32 times under isoflurane anesthesia. After SPECT, CT (Tube voltage: 60 kV, Tube current: 350 μA) was performed. Image reconstruction was performed on the projection data of SPECT through three-dimensional ordered subset expectation maximization method (8 subsets, 5 iterations).
# In the figure, the part indicated by the arrow is the location of the tumor, and the part indicated by the circle is the location of the kidney. The higher the SUV, the higher the radioactivity accumulation. […]
# as §1, with “SPECT/CT” for “LNCaP tumor-implanted mice prepared by the method described above were administered saline solutions (1.9 to 3.0 MBq, 150 μL) of [^111In]In-PSMA-DA1 or [^111In]In-PSMA-DB from the tail vein. SPECT/CT”, “24, 48,” for “24”, “96” for “48”
# [2] = 24 (and 48) hours after administration
compound,measurement,setting,value
"O=C(O)CC[C@H](NC(=O)N[C@@H](CCCCNC(=O)[C@H](Cc1ccc2ccccc2c1)NC(=O)[C@H]1CC[C@H](CNC(=O)CCC(C(=O)O)N2CCN(CC(=O)O)CCN(C(CCC(=O)N[C@@H](CCCCNC(=O)CCCc3ccc(I)cc3)C(=O)O)C(=O)O)CCN(CC(=O)O)CC2)CC1)C(=O)O)C(=O)O (stereo partly shown) [[^111In]In-PSMA-NAT-DA1, metal not drawn]",Blood,[1]; 1 h after administration,39.8 ± 2.91 % ID/g
same,Brain,[1]; 1 h after administration,0.63 ± 0.03 % ID/g
same,Heart,[1]; 1 h after administration,10.8 ± 1.31 % ID/g
same,Intestine,[1]; 1 h after administration,3.40 ± 0.24 % ID/g
same,Kidney,[1]; 1 h after administration,41.5 ± 4.27 % ID/g
same,LNCaP Tumor,[1]; 1 h after administration,23.0 ± 2.20 % ID/g
same,Liver,[1]; 1 h after administration,8.24 ± 2.38 % ID/g
same,Lung,[1]; 1 h after administration,28.1 ± 8.65 % ID/g
same,Muscle,[1]; 1 h after administration,2.82 ± 0.55 % ID/g
same,Pancreas,[1]; 1 h after administration,7.32 ± 1.27 % ID/g
same,Spleen,[1]; 1 h after administration,31.2 ± 2.84 % ID/g
same,Stomach (% ID),[1]; 1 h after administration,0.94 ± 0.35 % ID
same,Blood,[1]; 4 h after administration,38.8 ± 8.25 % ID/g
same,Brain,[1]; 4 h after administration,0.83 ± 0.20 % ID/g
same,Heart,[1]; 4 h after administration,12.2 ± 2.44 % ID/g
same,Intestine,[1]; 4 h after administration,3.47 ± 0.42 % ID/g
same,Kidney,[1]; 4 h after administration,66.2 ± 13.0 % ID/g
same,LNCaP Tumor,[1]; 4 h after administration,43.6 ± 8.49 % ID/g
same,Liver,[1]; 4 h after administration,8.38 ± 2.27 % ID/g
same,Lung,[1]; 4 h after administration,26.5 ± 5.70 % ID/g
same,Muscle,[1]; 4 h after administration,3.69 ± 0.83 % ID/g
same,Pancreas,[1]; 4 h after administration,5.85 ± 1.34 % ID/g
same,Spleen,[1]; 4 h after administration,23.0 ± 3.16 % ID/g
same,Stomach (% ID),[1]; 4 h after administration,1.32 ± 0.19 % ID
same,Blood,[1]; 24 h after administration,10.9 ± 5.55 % ID/g
same,Brain,[1]; 24 h after administration,0.27 ± 0.13 % ID/g
same,Heart,[1]; 24 h after administration,3.14 ± 1.52 % ID/g
same,Intestine,[1]; 24 h after administration,1.26 ± 0.70 % ID/g
same,Kidney,[1]; 24 h after administration,37.1 ± 19.3 % ID/g
same,LNCaP Tumor,[1]; 24 h after administration,51.9 ± 39.3 % ID/g
same,Liver,[1]; 24 h after administration,2.73 ± 1.08 % ID/g
same,Lung,[1]; 24 h after administration,8.76 ± 4.02 % ID/g
same,Muscle,[1]; 24 h after administration,1.23 ± 0.36 % ID/g
same,Spleen,[1]; 24 h after administration,13.5 ± 8.18 % ID/g
same,Stomach (% ID),[1]; 24 h after administration,0.28 ± 0.16 % ID
same,Blood,[1]; 48 h after administration,12.3 % ID/g and 12.3 ± 1.56 % ID/g
same,Brain,[1]; 48 h after administration,0.45 ± 0.03 % ID/g
same,Heart,[1]; 48 h after administration,4.68 ± 0.92 % ID/g
same,Intestine,[1]; 48 h after administration,1.39 ± 0.06 % ID/g
same,Kidney,[1]; 48 h after administration,79.0 ± 6.78 % ID/g
same,LNCaP Tumor,[1]; 48 h after administration,131.6 ± 22.0 % ID/g
same,Liver,[1]; 48 h after administration,4.49 ± 0.71 % ID/g
same,Lung,[1]; 48 h after administration,11.1 ± 2.24 % ID/g
same,Muscle,[1]; 48 h after administration,1.48 ± 0.31 % ID/g
same,Pancreas,[1]; 48 h after administration,2.26 ± 0.15 % ID/g
same,Spleen,[1]; 48 h after administration,17.8 ± 1.05 % ID/g
same,Stomach (% ID),[1]; 48 h after administration,0.44 ± 0.09 % ID
same,Blood,[1]; 96 h after administration,4.07 ± 1.37 % ID/g
same,Brain,[1]; 96 h after administration,0.18 ± 0.04 % ID/g
same,Heart,[1]; 96 h after administration,2.10 ± 0.83 % ID/g
same,Intestine,[1]; 96 h after administration,0.86 ± 0.54 % ID/g
same,Kidney,[1]; 96 h after administration,22.0 ± 14.9 % ID/g
same,LNCaP Tumor,[1]; 96 h after administration,56.2 ± 35.6 % ID/g
same,Liver,[1]; 96 h after administration,2.31 ± 0.89 % ID/g
same,Lung,[1]; 96 h after administration,4.55 ± 2.33 % ID/g
same,Muscle,[1]; 96 h after administration,0.59 ± 0.09 % ID/g
same,Pancreas,[1]; 96 h after administration,2.60 ± 3.18 % ID/g
same,Spleen,[1]; 96 h after administration,6.33 ± 5.25 % ID/g
same,Stomach (% ID),[1]; 96 h after administration,0.19 ± 0.10 % ID
same,Blood,[1]; 192 h after administration,2.47 ± 0.52 % ID/g
same,Heart,[1]; 192 h after administration,1.19 ± 0.24 % ID/g
same,Intestine,[1]; 192 h after administration,0.55 ± 0.15 % ID/g
same,Kidney,[1]; 192 h after administration,11.9 ± 2.08 % ID/g
same,LNCaP Tumor,[1]; 192 h after administration,35.0 ± 27.3 % ID/g
same,Liver,[1]; 192 h after administration,2.25 ± 0.45 % ID/g
same,Lung,[1]; 192 h after administration,2.81 ± 0.36 % ID/g
same,Muscle,[1]; 192 h after administration,0.33 ± 0.05 % ID/g
same,Pancreas,[1]; 192 h after administration,0.94 ± 0.32 % ID/g
same,Spleen,[1]; 192 h after administration,3.77 ± 0.54 % ID/g
same,Stomach (% ID),[1]; 192 h after administration,0.12 ± 0.01 % ID
same,radioactivity accumulation at the LNCaP tumor in SPECT/CT,LNCaP tumor; [2],significant radioactivity accumulation
same,radioactivity accumulation at the kidney in SPECT/CT,LNCaP tumor; [2],also observed
same,radioactivity accumulation at the kidney in SPECT/CT,LNCaP tumor; 96 hours after administration,hardly observed
